{
  "source": "paper PMC9945177",
  "about": "“Nature-Derived Epoxy Resin Monomers with Reduced Sensitizing Capacity—Isosorbide-Based Bis-Epoxides” (Chemical Research in Toxicology, 2023)",
  "key": {"AcPHCKRM": {"test_system": "AcPHCKRM", "assay": "peptide depletion with AcPHCKRM", "conditions": "peptide 1 mM, test compound 10 mM, DMSO/phosphate buffer pH 7.4 (1:1), room temperature", "description": "Liquid chromatography-mass spectroscopy (LC-MS) analyses of peptide depletion experiments were performed using electrospray ionization (ESI) on a Hewlett-Packard 1100 HPLC/MS (Agilent Technologies, Waldbronn, Germany). The system included a vacuum degasser, a binary pump, an autoinjector, a column thermostat, a diode array detector, and a single quadrupole mass spectrometer. The high-performance liquid chromatography (HPLC) system was equipped with a HyPURITY C18 column (150 × 3 mm i.d., particle size 3 μm, Thermo Hypersil-Keystone, Thermo Electron Corp., Bellafonte, PA, USA). The mobile phase consisted of 0.005% pentafluoropropanoic acid, 0.1% acetic acid, and 5% acetonitrile in water (solvent A) and 0.005% pentafluoropropanoic acid, 0.1% acetic acid, and 50% water in acetonitrile (solvent B). […] The gradient conditions used were as follows: 0-8% B (0-3 min), 8-10% B (3-15 min), 10-100% B (15-18 min), 100% B (18-30 min), 100-0% B (30-30.1 min), 0% B (30.1-40 min). The ESI interface was used in positive ionization mode with the following spray chamber settings: nebulizer pressure, 35 psi; capillary voltage, 3000 V; drying gas temperature, 350 °C; and drying gas flow rate, 12 L/min. The fragmentor voltage was set to 120 V. The mass spectrometer was used in scan mode detecting molecular ions with m/z values ranging from 50 to 1800. All solvents were degassed with argon prior to use."}, "[1]": {"assay": "thermogravimetric analysis (TGA) of polymers formed with TETA", "assay_type": "physicochemical", "conditions": "polymer cured with TETA, TGA under nitrogen", "description": "Detailed information on the polymerization procedure and the thermogravimetric analysis (TGA) is given in the Supporting Information.\nPilot experiments using TGA were conducted to investigate the properties of the polymers formed from isosorbide bis-epoxides 1–3 and the commonly used curing agent TETA (Table 2 and Figure 6). The onset of degradation is described by the initial decomposition temperature (IDT) and is an indication of the thermal stability of the cured epoxy resins. The maximum weight loss rate (Rmax) and the temperature (Tmax) at Rmax were taken from the peak values of the thermograms. The activation energies (Ea) for the decomposition of the polymers were calculated from the thermograms based on the Horowitz–Metzger equation.[43],[44]"}, "Female CBA/Ca mice": {"test_system": "Female CBA/Ca mice", "assay": "murine local lymph node assay (LLNA)", "assay_type": "in vivo", "description": "Female CBA/Ca mice, 7 to 9 weeks of age, were purchased from NOVA SCB Charles River, Germany. The mice were housed in HEPA-filtered air flow cages and kept on standard laboratory diet and water ad lib. The regional ethics committee, Jordbruksverket, approved the protocol and the procedure was performed in accordance with the guidelines.\nA previously published protocol[24] of the LLNA[34] was used to assess the sensitization potential of the isosorbide bis-epoxides 1–3. The purity of the assessed isosorbide bis-epoxides was >99% (GC/MS or LC/MS) before testing of sensitization potential. The isosorbide bis-epoxides were tested in five different concentrations; 1: 3.9 mM (0.10% w/v), 39 mM (1.0% w/v), 190 mM (5.0% w/v), 390 mM (10% w/v), and 770 mM (20% w/v); 2: 21 mM (1.0% w/v), 54 mM (2.5% w/v), 110 mM (5.0% w/v), 210 mM (10% w/v), and 540 mM (25% w/v); and 3: 2.3 mM (0.10% w/v), 23 mM (1.0% w/v), 110 mM (5.0% w/v), 230 mM (10% w/v), and 460 mM (20% w/v). A detailed description is given in Supporting Information.\nThe three isosorbide bis-epoxides were evaluated for sensitization potential in vivo with the murine LLNA (Figure 2). The stimulation index (SI) is defined as the ratio between the dpm/lymph node for the test group and the control group. Test materials that at one or more concentrations cause an SI greater than 3 are considered positive in the LLNA. The estimated concentration required to induce an SI of 3 (EC3) is used to determine the sensitizing potency of the test compound. […] Isosorbide bis-epoxide 1 gave an EC3 value of 0.17 M (4.4%), 3 gave an EC3 value of 0.36 M (16%), and no EC3 value was obtained for 2 (for full results, see the Supporting Information, Table S1).\nA previously published protocol1 of the LLNA2 was used to assess the sensitization potential of the isosorbide bis-epoxides 1-3. The purity of the assessed isosorbide bis-epoxides was >98% according to LC/MS analysis. The isosorbide bis-epoxides were tested in five different concentrations; 1: 3.87 mM […]\n456 mM (20% w/v). Briefly, mice in groups of three received 25 µL of test compound dissolved in the vehicle acetone/olive oil (4:1 v/v), on the dorsum of the ears for three consecutive days (day 0, 1, and 2). A sixth group of four mice was treated with vehicle only (control group). On day 5, all mice were injected intravenously via the tail vein with 250 µL of phosphate buffered saline (PBS) (pH 7.4, 137 mM NaCl, 2.7 mM KCl, and 10 mM phosphate buffer) containing 20 µCi [methyl-3H]thymidine. Five hours later the mice were sacrificed, the draining lymph nodes were excised and pooled for each group, followed by preparation of single-cell suspensions of lymph nodes in PBS by using cell strainers (Falcon; BD Labware, Franklin Lakes, NJ, USA; pore size, 70 µm). Cell suspensions were washed twice with PBS, precipitated with trichloroacetic acid (TCA) (5%), and stored at 4 °C overnight. The samples were then centrifuged, resuspended in TCA (5%, 1 mL), and transferred to scintillation cocktail (10 mL) (EcoLume INC Radiochemicals, Solon, OH, USA). The incorporation of [methyl-3H]thymidine into DNA was measured by b-scintillation counting with a Beckman LS 6000TA instrument. Results are expressed as the mean dpm/lymph node for each experimental group and as stimulation index (SI). The SI is defined as the ratio between dpm/lymph node for the test group and the control group. Test materials that at one or more concentrations cause an SI greater than 3 are considered positive in the LLNA. EC3 values (the estimated concentration required to induce an SI of 3) were calculated by linear interpolation.\nResults from the Local Lymph Node Assay\nTable S1: Full results from the LLNA of bis-epoxides 1-3a\nTest Test [3H]thymidine SI EC value"}, "[2]": {"conditions": "estimated concentration required to induce an SI of 3, linear interpolation"}},
  "data": [
    {"smiles": "C1OC1CO[C@H]1CO[C@H]2[C@@H]1OC[C@H]2OCC1CO1", "note": "(stereo partly drawn) [Compound 1, (3R,3aR,6S,6aR)-3,6-O-Bis(3,4-epoxypropyl)-1,4:3,6-dianhydro-D-glucitol]", "values": [
      {"measurement": "reactivity with the model peptide AcPHCKRM", "setting": "AcPHCKRM", "value": "highest reactivity"},
      {"measurement": "Ea (activation energy for the decomposition of the cured epoxy resins)", "setting": "[1]", "value": 66.9, "unit": "kcal/mol"},
      {"measurement": "IDT (initial decomposition temperature)", "setting": "[1]", "value": 362, "unit": "°C"},
      {"measurement": "Rmax (maximum weight loss rate)", "setting": "[1]", "value": "–3.24 %/°C"},
      {"measurement": "Tmax (temperature at the maximum rate of weight loss)", "setting": "[1]", "value": 380, "unit": "°C"},
      {"measurement": "EC3 value (%)", "setting": "Female CBA/Ca mice; as printed in main text", "value": 4.4, "unit": "%"},
      {"measurement": "sensitizing potency classification", "setting": "Female CBA/Ca mice; classified by EC3", "value": "moderate (EC3 > 2%, moderate)"},
      {"measurement": "EC3 value", "setting": "Female CBA/Ca mice; [2]", "value": 0.17, "unit": "M"},
      {"measurement": "EC3 value (% w/v)", "setting": "Female CBA/Ca mice; [2]", "value": 4.40, "unit": "% w/v"},
      {"measurement": "SI", "setting": "Female CBA/Ca mice; test concentration 0.10% w/v", "value": 0.82},
      {"measurement": "[3H]thymidine incorporation (dpm/lymph node)", "setting": "Female CBA/Ca mice; test concentration 0.10% w/v", "value": 213, "unit": "dpm/lymph node"},
      {"measurement": "SI", "setting": "Female CBA/Ca mice; test concentration 1.0% w/v", "value": 1.41},
      {"measurement": "[3H]thymidine incorporation (dpm/lymph node)", "setting": "Female CBA/Ca mice; test concentration 1.0% w/v", "value": 367, "unit": "dpm/lymph node"},
      {"measurement": "SI", "setting": "Female CBA/Ca mice; test concentration 5.0% w/v", "value": 3.28},
      {"measurement": "[3H]thymidine incorporation (dpm/lymph node)", "setting": "Female CBA/Ca mice; test concentration 5.0% w/v", "value": 852, "unit": "dpm/lymph node"},
      {"measurement": "SI", "setting": "Female CBA/Ca mice; test concentration 10% w/v", "value": 12.2},
      {"measurement": "[3H]thymidine incorporation (dpm/lymph node)", "setting": "Female CBA/Ca mice; test concentration 10% w/v", "value": 3164, "unit": "dpm/lymph node"},
      {"measurement": "SI", "setting": "Female CBA/Ca mice; test concentration 20% w/v", "value": 15.8},
      {"measurement": "[3H]thymidine incorporation (dpm/lymph node)", "setting": "Female CBA/Ca mice; test concentration 20% w/v", "value": 4121, "unit": "dpm/lymph node"}
    ]}
  ]
}
